Source: patent US6294580A, “Substituted 4-hydroxy-phenylalcanoic acid derivatives with agonist activity to PPAR-gamma” (Glaxo Wellcome Inc., priority 1996, dated 2001)
pEC50, pKi: −log10 of the molar value. Structures can show the parent of a compound that is named as a salt. Where two headings read alike, the source gives them in different places.

Columns and labels:
[1] = test system: PPARg; test: PPARgamma Transient Cotransfection Assay; type: cell-based
[2] = target: T1, hPPARgamma (Homo sapiens, UniProt P37231); test: hPPARgamma Ligand Binding Assay
T1 construct: 10x-histidine tag (N); made in house; host or cells: E. coli
T1 sequence (P37231 195-475 isoform P37231-2): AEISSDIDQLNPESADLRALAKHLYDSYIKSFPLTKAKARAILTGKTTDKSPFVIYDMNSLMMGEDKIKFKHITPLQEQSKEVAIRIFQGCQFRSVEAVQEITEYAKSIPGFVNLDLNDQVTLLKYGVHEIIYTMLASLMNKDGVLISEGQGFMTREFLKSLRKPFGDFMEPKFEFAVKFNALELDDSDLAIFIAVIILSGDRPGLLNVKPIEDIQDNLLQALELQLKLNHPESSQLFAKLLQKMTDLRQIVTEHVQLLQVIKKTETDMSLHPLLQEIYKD
Method: 2. hPPARgamma Ligand Binding Assay: The PPAR-gamma ligand binding domain (amino acids 195-475) was expressed with an N-terminal 10×-histidinetag in E. coli cells. The cells were lysed and receptor was purified by means of the epitope tag. The stock solution of protein was diluted to 200 nM in assay buffer (50 mM Tris, 50 mM KCl, pH 8 20 mM CHAPS, 2 mM EDTA 10 mM DTT (Fresh)) just before use.
Test compounds were prepared as 6 mM stock solutions in DMSO. […] The right-most column of wells was used for controls. […] Plates were incubated at room temperature for 2 hrs, and then cooled on ice for 30 minutes. 50 uL samples from each well of a single test plate were simultaneously loaded onto an equilibrated AGTC 96 well gel filtration block (Advanced Genetics Technology Corp.) using a Zymak Rapidplate automated pipettor. The block was placed on top of a clean microtiter plate and centrifuged @1,100×g for 4 min. 200 uL of scintillation fluid was added to each well, the plates were sealed and allowed to equilibrate for at least 4 hours before counting in a Wallac 1250 Microbeta counter.
Ki's were determined from a nonlinear least squares fit of the data to a simple competitive binding model.

[3] = CAT reporter, read-out: PPARg EC50
[4] = PPARg Ki, competition with [3H]-BRL 49,653, room temperature 2 hrs
[5] = read-out: PPARg EC50, CAT reporter
[6] = read-out: PPARg Ki; competition with [3H]-BRL 49,653, room temperature 2 hrs

| SMILES | pEC50 [1, 3] | pKi [2, 4] | further results |
| --- | --- | --- | --- |
| Cc1oc(-c2ccccc2)nc1CCOc1ccc(CC(Nc2ccccc2C(=O)c2ccc(CN(C)C)cc2)C(=O)O)cc1 (stereo not drawn) [Example 81, 2-[2-(4-dimethylaminomethyl-benzoyl)-phenylamino]-3-{4-[2-(5-methyl-2-phenyl-oxazol-4-yl)-ethoxy]-phenyl}-propionic acid hydrochloride] | 6.40 | 6.89 | – |
| Cc1oc(-c2ccccc2)nc1CCOc1ccc(C[C@H](Nc2ccccc2C(=O)c2ccncc2)C(=O)O)cc1 [Example 56, 3-{4-[2-(5-Methyl-2-phenyl-oxazol-4-yl)-ethoxy]-phenyl}-2(S)-[2-(pyridine-4-carbonyl)-phenylamino]-propionic acid] | 9.00 | 8.00 | – |
| CN(CCOc1ccc(CC(Nc2sccc2C(=O)c2ccccc2)C(=O)O)cc1)c1nc2ccccc2o1 (stereo not drawn) [Example 52, 3-{4-[2-(Benzoxazol-2-yl-methyl-amino)-ethoxy]-phenyl}-2-(3-benzoyl-thiophene-2-ylamino)-propionic acid] | 7.10 | 7.00 | – |
| CCOC(=O)C(Cc1ccc(OCCN(C)c2ccccn2)cc1)Nc1ccccc1C(=O)c1ccccc1 (stereo not drawn) [Example 13, 2-(2-Benzoyl-phenylamino)-3-{4-[2-(methyl-pyridin-2-yl-amino)-ethoxy]-phenyl}-propionic acid ethyl ester] | 7.22 | 5.89 | – |
| COC(=O)c1ccccc1N[C@@H](Cc1ccc(OCCc2nc(-c3ccccc3)oc2C)cc1)C(=O)O [Example 88, 2-(S)-(1-carboxy-2-{4-{2-(5-methyl-2-phenyl-oxazol-4-yl)-ethoxy]-phenyl}-ethylamino)-benzoic acid methyl ester] | – | – | pEC50 [1, 5]: 9.30 |
| O=C(c1ccccc1)c1ccccc1N[C@@H](Cc1ccc(OC[C@@H]2CSCN2c2nc3ccccc3o2)cc1)C(=O)O [Example 72, 3-[4-(3-Benzoxazol-2-yl-thiazolidin-4(R)-ylmethoxy)-phenyl]-2(S)-(2-benzoyl-phenylamino)-propionic acid] | 8.30 | 7.52 | – |
| Cc1oc(-c2ccccc2)nc1CCOc1ccc(CC(Nc2ccccc2C(=O)c2cccc(CN)c2)C(=O)O)cc1 (stereo not drawn) [Example 86, 2-[2-(3-aminomethyl-benzoyl)-phenylamino]-3-{4-[2-(5-methyl-2-phenyl-oxazol-4-yl)-ethoxy]-phenyl}-propionic acid hydrochloride] | 7.52 | 6.19 | – |
| CN(CCOc1ccc(CC(Nc2ccsc2C(=O)c2ccccc2)C(=O)O)cc1)c1nc2ccccc2o1 (stereo not drawn) [Example 25] | 9.00 | 7.15 | – |
| COC(=O)c1ccccc1N[C@@H](Cc1ccc(OCCc2ccc(OC(F)(F)F)cc2)cc1)C(=O)O [Example 107, 2(S)-(1-carboxy-2-{4-[2-(4-trifluoromethoxy-phenyl)-ethoxy]-phenyl}-ethylamino)-benzoic acid methyl ester] | 6.72 | 7.40 | – |
| O=C(c1ccccc1)c1sccc1NC(Cc1ccc(OCc2ccccc2)cc1)C(=O)O (stereo not drawn) [Example 9, 2-(2-Benzoyl-thiophen-3-yl-amino)-3-(4-benzyloxy-phenyl)-propionic acid] | 6.20 | 6.15 | – |
| COC(=O)c1ccccc1N[C@@H](Cc1ccc(OCCc2nc(N3CCN(C)CC3)sc2C)cc1)C(=O)O [Example 105] | 7.46 | – | pKi [2, 6]: 6.85 |
| COC(=O)c1ccccc1N[C@@H](Cc1ccc(OCCc2nc(-c3ccccc3)sc2C)cc1)C(=O)O [Example 45, 2-(1-Carboxy-2-{4-[2-(5-methyl-2-phenyl-thiazol-4-yl)-ethoxy]-phenyl}-ethylamino)-benzoic acid methyl ester] | 9.00 | 7.52 | – |
| Cc1oc(-c2ccccc2)nc1CCOc1ccc(CC(Nc2ccccc2C(=O)c2cccc(N)c2)C(=O)O)cc1 (stereo not drawn) [Example 94, 2-[2-(3-amino-benzoyl)-phenylamino]-3-{4-[2-(5-methyl-2-phenyl-oxazol-4-yl)-ethoxy]-phenyl}-propionic acid] | 8.00 | 7.40 | – |
| CN(CCOc1ccc(CC(Nc2ccccc2C(=O)c2cccc(C(F)(F)F)c2)C(=O)O)cc1)c1nc2ccccc2o1 (stereo not drawn) [Example 76] | 8.00 | 6.96 | – |
| O=C(c1ccccc1)c1ccccc1NC(Cc1ccc(OCCn2cnc3ccccc32)cc1)C(=O)O (stereo not drawn) [Example 31, 3-[4-(2-Benzoimidazol-1-yl-ethoxy)-phenyl]-2-(2-benzoyl-phenylamino)-propionic acid] | 6.35 | 6.84 | – |
| O=C(c1ccccc1)c1ccccc1NC(Cc1ccc(OC2CCN(c3nc4ccccc4o3)C2)cc1)C(=O)O (stereo not drawn) [Example 21, 3-[4-(1-Benzoxazol-2-yl-pyrrolidin-3-yloxy)-phenyl]-2-(2-benzoyl-phenylamino)-propionic acid] | 6.82 | 6.28 | – |
| COC(=O)c1ccccc1N[C@@H](Cc1ccc(OCCOc2ccc([N+](=O)[O-])cn2)cc1)C(=O)O [Example 69] | 7.00 | – | pKi [2, 6]: 6.54 |

| SMILES | pEC50 [1, 3] | pKi [2, 4] | further results |
| --- | --- | --- | --- |
| COC(=O)Nc1cccc(C(=O)c2ccccc2NC(Cc2ccc(OCCc3nc(-c4ccccc4)oc3C)cc2)C(=O)O)c1 (stereo not drawn) [Example 96, 2-[2-(3-methoxycarbonylamino-benzoyl)-phenylamino]-3-{4-[2-(5-methyl-2-phenyl-oxazol-4-yl)-ethoxy]-phenyl}-propionic acid] | 6.52 | 6.55 | – |
| CN(CCOc1ccc(CC(Nc2ccccc2C(=O)C2CCCCCC2)C(=O)O)cc1)c1nc2ccccc2o1 (stereo not drawn) [Example 49, 3-{4-[2-(Benzoxazol-2-yl-methyl-amino)-ethoxy]-phenyl}-2-(2-cycloheptanecarbonyl-phenylamino)-propionic acid] | 8.00 | 7.10 | – |
| O=C(c1ccccc1)c1ccccc1NC(Cc1ccc(OCc2ccccc2)cc1)C(=O)O (stereo not drawn) [Example 4, 2-(2-benzoylphenylamino)-3-(4-benzyloxyphenyl) propanoic acid] | 5.52 | 6.00 | PPARg Fold. Act. ([1]; CAT reporter): 20 |
| Cc1oc(-c2ccccc2)nc1CCOc1ccc(CC(Nc2ccccc2C(=O)c2cccc(CN(C)C)c2)C(=O)O)cc1 (stereo not drawn) [Example 87, 2-[2-(3-dimethylaminomethyl-benzoyl)-phenylamino]-3-{4-[2-(5-methyl-2-phenyl-oxazol-4-yl)-ethoxy]-phenyl}-propionic acid hydrochloride] | 6.33 | – | pKi ([2]; competition with [3H]-BRL 49,653, room temperature 2 hrs; read-out: PPARg Ki): 5.94 |
| CNC(=O)c1ccccc1N[C@@H](Cc1ccc(OCCc2nc(-c3ccccc3)oc2C)cc1)C(=O)O [Example 91, 2-(S)-(1-carboxy-2-{4-{2-(5-methyl-2-phenyl-oxazol-4-yl)ethoxy]-phenyl}-ethylamino)-benzoic acid methyl amide] | 7.70 | – | – |
| CN(CCOc1ccc(CC(Nc2ccccc2C(=O)c2ccccc2)C(=O)O)cc1)c1ccccn1 (stereo not drawn) [Example 11, 2-(2-Benzoyl-phenylamino)-3-{4-[2-(methyl-pyridin-2-yl-amino)-ethoxy]-phenyl}-propionic acid] | – | – | pEC50 [1, 5]: 8.00 |
| COC(=O)C(Cc1ccc(OCc2ccccc2)cc1)Nc1ccccc1C(=O)Nc1ccccc1 (racemic) [Example 6, 3-(4-Benzyloxy-phenyl)-2-(phenylcarbamoyl-phenylamino)-propionic acid methyl ester] | – | – | PPARg Fold. Act. ([1]; CAT reporter): 4 |
| CN(CCOc1ccc(C[C@H](NC(=O)c2coc3ccccc3c2=O)C(=O)O)cc1)c1nc2ccccc2o1 [Example 28, 3-{4-[2-(Benzoxazol-2-yl-methyl-amino)-ethoxy]-phenyl}-2(S)-[(4-oxo-4H-chromene-3-carbonyl)-amino]-propionic acid] | 7.60 | – | – |
| Cc1sc(N2CCN(S(C)(=O)=O)CC2)nc1CCOc1ccc(C[C@H](Nc2ccccc2C(=O)c2ccccc2)C(=O)O)cc1 [Example 103, 2(S)-(2-benzoyl-phenylamino)-3-(4-{2-[5-methyl-2-(4-methylsulfonyl-piperazin-1-yl)-thiazol-4-yl]-ethoxy}-phenyl)-propionic acid] | – | – | pEC50 [1, 5]: 6.74 |
| COC(=O)[C@H](Cc1ccc(OCCc2nc(N3CCN(C)CC3)sc2C)cc1)Nc1ccccc1C(=O)c1ccccc1 [Example 42] | 8.30 | – | – |
| O=C(C1=C(N[C@@H](Cc2ccc(OCc3ccccc3)cc2)C(=O)O)CCCC1)c1ccccc1 [Example 3, 2(S)-(2-Benzoyl-cyclohex-1-enylamino)-3-(4-benzyloxy-phenyl)-propionic acid dicyclohexylamine salt] | – | – | PPARg Fold. Act. ([1]; CAT reporter): 3 |
| Cc1oc(-c2ccccc2)nc1CCOc1ccc(CC(Nc2ccccc2C(=O)c2cccc(C(=O)O)c2)C(=O)O)cc1 (stereo not drawn) [Example 84] | 7.26 | – | – |
| Cc1oc(-c2ccccc2)nc1CCOc1ccc(CC(Nc2ccccc2C(=O)c2cccc(CO)c2)C(=O)O)cc1 (stereo not drawn) [Example 85, 2-[2-(3-hydroxymethyl-benzoyl)-phenylamino]-3-{4-[2-(5-methyl-2-phenyl-oxazol-4-yl)-ethoxy]-phenyl}-propionic acid] | 7.70 | – | – |
| CCN(CCOc1ccc(C[C@H](Nc2ccccc2C(=O)OC)C(=O)O)cc1)c1cccc(C)c1 [Example 71] | 6.82 | – | – |
| COC(=O)C(Cc1ccc(OCc2ccccc2)cc1)Nc1ccccc1C(=O)N1CCCCC1 (stereo not drawn) [Example 7, 3-(4-Benzyloxy-phenyl)-2-[2-(piperidine-1-carbonyl)-phenylamino]-propionic acid methyl ester] | – | – | PPARg Fold. Act. ([1]; CAT reporter): 5 |
| Cc1oc(-c2ccccc2)nc1CCOc1ccc(C[C@H](Nc2ccccc2C(=O)NCCCN)C(=O)O)cc1 [Example 90, 2-(S)-(1-carboxy-2-{4-{2-(5-methyl-2-phenyl-oxazol-4-yl)-ethoxy]-phenyl}-ethylamino)-benzoic acid 3-aminopropyl amide hydrochloride] | – | 5.52 | – |
